Experimental data taken from article PMC7935131 (Blood cancer discovery, 2020).

Tests used:
[1] = tested on: α-KG-dependent histone dioxygenases (H3K4 methylation); test: Histone H3K4 methylation in treated cells; type: cell-based
[2] = tested on: TET2^MT cells; test: In vitro toxicity to TET2^MT cells; type: cell-based

Compound | Change in H3K4 methylation [1] | LD50 for TET2^MT [2]
COC(=O)CNC(=O)C(=O)OC [DMOG, methyl 2-[(2-methoxy-2-oxoethyl)amino]-2-oxoacetate] | significantly affected | –
O=C(O)CCC(O)C(=O)O (centres unmarked) [2HG, 2-hydroxyglutarate] | – | in millimolar ranges
